US20230390267A1, “TREATMENT REGIMENS FOR EARLY IDIOPATHIC PARKINSON'S DISEASE” (BIAL - PORTELA & CA., S.A., priority 2020, published 2023)
Like-named read-outs stand apart in the source and are kept apart here.

Experiments:
[1] = test system: patients with early idiopathic Parkinson's disease treated with levodopa/DDCI, with no signs of motor complications; details: human, in vivo, 24 weeks
Excerpt: (§1) The term “treatment-emergent adverse event” is defined as any event not present before exposure to the study drug or any event already present that worsens in either intensity or frequency after first intake of study drug until 2 weeks after last intake of the study drug.
(§2) The factors evaluated include: • Treatment-emergent adverse events (TEAEs) including serious adverse events (SAEs) • Laboratory safety tests (biochemistry, hematology, coagulation and urinalysis) • Physical and neurological examinations • Vital signs • 12-lead ECG readings • Columbia-Suicide Severity Rating Scale (C-SSRS) • Modified Minnesota Impulsive Disorders Interview (mMIDI)

[2] = test system: PD patients with motor fluctuations; details: cited from earlier work; for mean treatment effect versus placebo on absolute daily OFF-time: double-blind
[3] = test system: PD patients with motor fluctuations (Japanese population); details: p<0.05, cited from earlier work
[4] = test system: PD patients with motor fluctuations; details: cited from earlier work
[5] = test system: patients who switched from entacapone to opicapone or had lack of efficacy or adverse events with entacapone; details: patients who continued with opicapone beyond 6 months; cited from earlier work
[6] = test system: PD patients with motor fluctuations; details: cited from earlier work; remark: listed apart in the source
[7] = test system: PD patients with motor fluctuations; details: cited from earlier work; remark: listed apart in the source
[8] = cited from earlier work
[9] = adjunct opicapone to levodopa/benserazide, cited from earlier work
erythrocyte COMT = details: cynomolgus monkey; cited from earlier work
[10] = oral opicapone with levodopa; evident 24 hours after drug administration; cited from earlier work
S-COMT = details: peripheral tissues; cited from earlier work
[11] = test system: MPTP treated parkinsonian primates; details: in vivo; cited from earlier work
COMT activity in brain = details: cited from earlier work
[12] = test system: patients with early idiopathic Parkinson's disease treated with levodopa/DDCI, with no signs of motor complications; experiment: EPSILON Phase III study, safety (treatment emergent adverse events)
Excerpt: as §1, §2

Structure (SMILES): Cc1c(Cl)c(C)[n+]([O-])c(Cl)c1-c1noc(-c2cc(O)c(O)c([N+](=O)[O-])c2)n1 [opicapone, 2,5-dichloro-3-[5-(3,4-dihydroxy-5-nitrophenyl)-1,2,4-oxadiazol-3-yl]-4,6-dimethylpyridine 1-oxide]
- TEAE COVID-19; % [1]: (8.5) %
- TEAE COVID-19; n [1]: 15
- OFF-time change from baseline at the end of the open-label phase ([2]; group that switched from placebo to opicapone): 114.7 min
- mean treatment effect versus placebo on absolute daily OFF-time ([2]; opicapone 25 mg, p=0.0106): -35.1 min
- OFF-time change from baseline at the end of the open-label phase ([2]; opicapone 50 mg throughout double-blind and open-label treatment): -141.1 min
- mean treatment effect versus placebo on absolute daily OFF-time ([2]; opicapone 50 mg, p<0.0001): -58.1 min
- placebo-adjusted reduction of OFF time ([2]; opicapone 50 mg, onset of motor fluctuations within the previous 2 years, p=0.0003): -68.5 min
- placebo-adjusted mean reduction of OFF time ([2]; opicapone 50 mg, patients only taking levodopa at baseline, p=0.02): -65.6 min
- placebo-adjusted reduction of OFF time ([2]; opicapone 50 mg, patients taking less than 600 mg of levodopa per day, p=0.0005): -75.5 min
- placebo adjusted reduction in OFF time ([3]; opicapone 25 mg dose group): -0.74 h
- placebo adjusted reduction in OFF time ([3]; opicapone 50 mg dose): -0.62 h
- treatment difference in OFF time for opicapone 50 mg versus entacapone ([4]; p=0.05): 26.2 min
- additional OFF-time reduction after switch from entacapone ([4]; patients that ended open-label with opicapone 50 mg): 68 min
- mean reduction in OFF time measured by interview [5]: −2 hours per day
- patients who reported they were improved ([6]; 3 months): 76.9%
- patients judged as having worsened ([6]; UK patients (n=95), 6 months): 6.4%
- patients judged as improved since commencing treatment ([6]; UK patients (n=95), 6 months): 85.3%
- patients judged as showing 'no change' ([6]; UK patients (n=95), 6 months): 8.4%
- patients much improved ([6]; UK patients (n=95), 6 months): 49.4%
- patients very much improved ([6]; UK patients (n=95), 6 months): 8.4%
- patients reported as much or very much improved (CGI-C) ([6]; opicapone 50 mg, 3 months): 43%
- patients showing clinical improvement as judged by the investigators (CGI-C) ([6]; opicapone 50 mg, 3 months): 71.3%
- improvement in UPDRS ADL score ([6]; opicapone adjunct therapy): 3.0 points
- improvement in UPDRS motor score ([6]; opicapone adjunct therapy): 4.6 points
- mean±SD improvement in NMSS sleep/fatigue score versus baseline ([6]; p<0.0001): −1.3+6.3 points
- mean±SD improvement in NMSS total score versus baseline ([6]; p<0.0001): −6.8±19.7 points
- mean improvement in NMSS total score ([7]; 1-year open-label endpoint): −4.2
- change in NMSS sleep/fatigue score ([7]; opicapone 50 mg dose, vs −0.5 with placebo): −1.2 points
- increase of minimum plasma concentration (Cmin) for individual levodopa doses ([8]; human, in vivo): up to 2.6 fold
- effect on levodopa systemic exposure and peak-to-trough fluctuations ([8]; once daily opicapone 50 mg, levodopa given every 3 and 4 hours): increased systemic exposure to levodopa
- increase of levodopa systemic exposure ([9]; Cmax not changed): 2 fold
- reduction of 3-O-methyldopa (3-OMD) exposure and Cmax [9]: up to 7 fold
- reduction in erythrocyte COMT activity (erythrocyte COMT): ≤ 85%
- brain levodopa levels [10]: sustained increase in brain levodopa levels
- binding affinity to S-COMT (S-COMT): sub-picomolar
- motor function in MPTP treated parkinsonian primates [11]: improvement in motor function
- effect on COMT activity in brain (COMT activity in brain): does not appear to have any effect
- Any Serious TEAE; % ([12]; double blind phase, N = 177): (5.1) %
- Any Serious TEAE; n ([12]; double blind phase, N = 177): 9
- Any TEAE by Maximum Severity: Mild; % ([12]; double blind phase, N = 177): (29.9) %
- Any TEAE by Maximum Severity: Mild; n ([12]; double blind phase, N = 177): 53
- Any TEAE by Maximum Severity: Moderate; % ([12]; double blind phase, N = 177): (14.1) %
- Any TEAE by Maximum Severity: Moderate; n ([12]; double blind phase, N = 177): 25
- Any TEAE by Maximum Severity: Severe; % ([12]; double blind phase, N = 177): (3.4) %
- Any TEAE by Maximum Severity: Severe; n ([12]; double blind phase, N = 177): 6
- Any TEAE by Worst Relationship: Definitely Related; % ([12]; double blind phase, N = 177): (1.1) %
- Any TEAE by Worst Relationship: Definitely Related; n ([12]; double blind phase, N = 177): 2
- Any TEAE by Worst Relationship: Not Related (first line, total incl. Unlikely Related); % ([12]; double blind phase, N = 177): (37.3) %
- Any TEAE by Worst Relationship: Not Related (first line, total incl. Unlikely Related); n ([12]; double blind phase, N = 177): 66
- Any TEAE by Worst Relationship: Not Related (second line, sub-category); % ([12]; double blind phase, N = 177): (36.2) %
- Any TEAE by Worst Relationship: Not Related (second line, sub-category); n ([12]; double blind phase, N = 177): 64
- Any TEAE by Worst Relationship: Possibly Related; % ([12]; double blind phase, N = 177): (5.6) %
- Any TEAE by Worst Relationship: Possibly Related; n ([12]; double blind phase, N = 177): 10
- Any TEAE by Worst Relationship: Probably Related; % ([12]; double blind phase, N = 177): (3.4) %
- Any TEAE by Worst Relationship: Probably Related; n ([12]; double blind phase, N = 177): 6
- Any TEAE by Worst Relationship: Related; % ([12]; double blind phase, N = 177): (10.2) %
- Any TEAE by Worst Relationship: Related; n ([12]; double blind phase, N = 177): 18
- Any TEAE by Worst Relationship: Unlikely Related; % ([12]; double blind phase, N = 177): (1.1) %
- Any TEAE by Worst Relationship: Unlikely Related; n ([12]; double blind phase, N = 177): 2
- Any TEAE leading to Death; % ([12]; double blind phase, N = 177): (0.6) %
- Any TEAE leading to Death; n ([12]; double blind phase, N = 177): 1
- Any TEAE leading to IMP interruption; % ([12]; double blind phase, N = 177): (0.6) %
- Any TEAE leading to IMP interruption; n ([12]; double blind phase, N = 177): 1
- Any TEAE leading to Withdrawal; % ([12]; double blind phase, N = 177): (1.1) %
- Any TEAE leading to Withdrawal; n ([12]; double blind phase, N = 177): 2
- Any TEAE; % ([12]; double blind phase, N = 177): (47.5) %
- Any TEAE; n ([12]; double blind phase, N = 177): 84
- TEAE Arthralgia; % ([12]; double blind phase, N = 177): (2.3) %
- TEAE Arthralgia; n ([12]; double blind phase, N = 177): 4
- TEAE Back pain; % ([12]; double blind phase, N = 177): (4.5) %
- TEAE Back pain; n ([12]; double blind phase, N = 177): 8
- TEAE Dizziness; % ([12]; double blind phase, N = 177): (1.1) %
- TEAE Dizziness; n ([12]; double blind phase, N = 177): 2
- TEAE Dyskinesia; % ([12]; double blind phase, N = 177): (1.7) %
- TEAE Dyskinesia; n ([12]; double blind phase, N = 177): 3
- TEAE Fall; % ([12]; double blind phase, N = 177): (2.3) %
- TEAE Fall; n ([12]; double blind phase, N = 177): 4
- TEAE Fatigue; % ([12]; double blind phase, N = 177): (2.8) %
- TEAE Fatigue; n ([12]; double blind phase, N = 177): 5
- TEAE Gastrointestinal disorders; % ([12]; double blind phase, N = 177): (6.8) %
- TEAE Gastrointestinal disorders; n ([12]; double blind phase, N = 177): 12
- TEAE General disorders; % ([12]; double blind phase, N = 177): (7.9) %
- TEAE General disorders; n ([12]; double blind phase, N = 177): 14
- TEAE Headache; % ([12]; double blind phase, N = 177): (0.6) %
- TEAE Headache; n ([12]; double blind phase, N = 177): 1
- TEAE Hypertension; % ([12]; double blind phase, N = 177): (2.8) %
- TEAE Hypertension; n ([12]; double blind phase, N = 177): 5
- TEAE Infections and Infestations; % ([12]; double blind phase, N = 177): (15.8) %
- TEAE Infections and Infestations; n ([12]; double blind phase, N = 177): 28
- TEAE Injury, poisoning and procedural complications; % ([12]; double blind phase, N = 177): (3.4) %
- TEAE Injury, poisoning and procedural complications; n ([12]; double blind phase, N = 177): 6
- TEAE Insomnia; % ([12]; double blind phase, N = 177): (2.3) %
- TEAE Insomnia; n ([12]; double blind phase, N = 177): 4
- TEAE Musculoskeletal and connective tissue disorders; % ([12]; double blind phase, N = 177): (10.2) %
- TEAE Musculoskeletal and connective tissue disorders; n ([12]; double blind phase, N = 177): 18
- TEAE Nausea; % ([12]; double blind phase, N = 177): (2.3) %
- TEAE Nausea; n ([12]; double blind phase, N = 177): 4
- TEAE Nervous System Disorders; % ([12]; double blind phase, N = 177): (13.6) %
- TEAE Nervous System Disorders; n ([12]; double blind phase, N = 177): 24
- TEAE Oedema peripheral; % ([12]; double blind phase, N = 177): (2.3) %
- TEAE Oedema peripheral; n ([12]; double blind phase, N = 177): 4
- TEAE On and off phenomenon; % ([12]; double blind phase, N = 177): (4.5) %
- TEAE On and off phenomenon; n ([12]; double blind phase, N = 177): 8
- TEAE Psychiatric disorders; % ([12]; double blind phase, N = 177): (7.9) %
- TEAE Psychiatric disorders; n ([12]; double blind phase, N = 177): 14
- TEAE Tremor; % ([12]; double blind phase, N = 177): (1.1) %
- TEAE Tremor; n ([12]; double blind phase, N = 177): 2
- TEAE Upper respiratory tract infection; % ([12]; double blind phase, N = 177): (0.6) %
- TEAE Upper respiratory tract infection; n ([12]; double blind phase, N = 177): 1
- TEAE Urinary tract infection; % ([12]; double blind phase, N = 177): (2.3) %
- TEAE Urinary tract infection; n ([12]; double blind phase, N = 177): 4
- TEAE Vascular disorders; % ([12]; double blind phase, N = 177): (5.6) %
- TEAE Vascular disorders; n ([12]; double blind phase, N = 177): 10
- TEAE Vomiting; % ([12]; double blind phase, N = 177): (1.7) %
- TEAE Vomiting; n ([12]; double blind phase, N = 177): 3
- increase in treatment emergent adverse events including nervous system disorders such as dyskinesia ([12]; opicapone-treated patients vs placebo): no increase
- tolerability ([12]; patients without clinically diagnosed motor complications): well tolerated
